# Results published in patent US20220088016A1, “CANCER TREATMENT USING MULTI-TARGETED KINASE INHIBITOR IN COMBINATION OF PROTEIN KINASE BIOMARKERS” (ZHEJIANG CROWNMAB BIOTECH CO. LTD., priority 2019, published 2022).
# Columns and labels:
# Assay in all cases: Kinase profiling
# Assay type in all cases: binding
# Conditions in all cases: read-out: % Ctrl @ 1000 nM
# [1] = target: CSF1R (Homo sapiens, UniProt P07333)
# [2] = target: PIP5K2C (Homo sapiens, UniProt Q8TBX8)
# [3] = target: EPHA2 (Homo sapiens, UniProt P29317)
# [4] = target: T1, NIM1 (Homo sapiens, UniProt Q8IY84)
# T1 construct: T7 phage fusion (said for most assays); made in house
# [5] = target: DRAK2 (Homo sapiens, UniProt O94768)
# [6] = target: T2, MST2 (Homo sapiens, UniProt Q13188)
# T2 construct: T7 phage fusion (stated for most kinases of the panel only); made in house; host or cells: T7 phage in E. coli (BL21-derived) or HEK-293 cells
# [7] = target: MAP4K2 (Homo sapiens, UniProt Q12851)
# [8] = target: CAMK1D (Homo sapiens, UniProt Q8IU85)
# [9] = target: RET (Homo sapiens, UniProt P07949)
# [10] = target: KIT (Homo sapiens, UniProt P10721)
# [11] = target: FLT3 (K663Q) (Homo sapiens, UniProt P36888, K663Q)
# [12] = target: FLT3 (D835V) (Homo sapiens, UniProt P36888, D835V)
# [13] = target: TIE1 (Homo sapiens, UniProt P35590)
# [14] = target: CDC2L5 (Homo sapiens, UniProt Q14004)
# [15] = target: CAMK2G (Homo sapiens, UniProt Q13555)
# [16] = target: MAP3K3 (Homo sapiens, UniProt Q99759)
# [17] = target: T3, MAST1 (Homo sapiens, UniProt Q9Y2H9)
# T3 construct: T7 phage fusion (stated for most kinases of the panel only); made in house; host or cells: T7 phage in E. coli (BL21-derived) or HEK-293 cells
# [18] = target: ABL1 (F317L)-nonphosphorylated (Homo sapiens, UniProt P00519, F317L)
# [19] = target: PIM2 (Homo sapiens, UniProt Q9P1W9)
# [20] = target: FLT3 (N841I) (Homo sapiens, UniProt P36888, N841I)
# [21] = target: LTK (Homo sapiens, UniProt P29376)
# [22] = target: DAPK3 (Homo sapiens, UniProt O43293)
# [23] = target: PIK3CA (Homo sapiens, UniProt P42336)
# [24] = target: YSK1 (Homo sapiens, UniProt O00506)
# [25] = target: CDC2L2 (Homo sapiens, UniProt Q9UQ88)
# [26] = target: CLK2 (Homo sapiens, UniProt P49760)
# [27] = target: CDK2 (Homo sapiens, UniProt P24941)
# [28] = target: TNIK (Homo sapiens, UniProt Q9UKE5)
# [29] = target: ACVR2A (Homo sapiens, UniProt P27037)
# [30] = target: MAP3K1 (Homo sapiens, UniProt Q13233)
# [31] = target: PFTAIRE2 (Homo sapiens, UniProt Q96Q40)
# [32] = target: MAP4K5 (Homo sapiens, UniProt Q9Y4K4)
# [33] = target: CAMK1B (Homo sapiens, UniProt Q6P2M8)
# [34] = target: ULK1 (Homo sapiens, UniProt O75385)
# [35] = target: WEE2 (Homo sapiens, UniProt P0C1S8)
# [36] = target: DAPK1 (Homo sapiens, UniProt P53355)
# [37] = target: PIK3CA (H1047Y) (Homo sapiens, UniProt P42336, H1047Y)
# [38] = target: ULK3 (Homo sapiens, UniProt Q6PHR2)
# [39] = target: DYRK2 (Homo sapiens, UniProt Q92630)
# YSK1, sequence (O00506 whole entry): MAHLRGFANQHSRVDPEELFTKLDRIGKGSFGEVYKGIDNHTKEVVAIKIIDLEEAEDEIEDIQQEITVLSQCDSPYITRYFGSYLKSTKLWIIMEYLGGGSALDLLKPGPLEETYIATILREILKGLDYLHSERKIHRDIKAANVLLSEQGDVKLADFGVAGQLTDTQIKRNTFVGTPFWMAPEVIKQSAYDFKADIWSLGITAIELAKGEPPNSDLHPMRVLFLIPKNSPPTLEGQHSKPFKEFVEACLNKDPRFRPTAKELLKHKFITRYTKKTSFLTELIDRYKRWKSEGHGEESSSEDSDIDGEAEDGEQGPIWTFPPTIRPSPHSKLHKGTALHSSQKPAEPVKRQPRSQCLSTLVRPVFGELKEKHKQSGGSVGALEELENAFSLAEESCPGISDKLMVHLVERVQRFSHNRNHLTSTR
# PFTAIRE2, sequence (Q96Q40 whole entry): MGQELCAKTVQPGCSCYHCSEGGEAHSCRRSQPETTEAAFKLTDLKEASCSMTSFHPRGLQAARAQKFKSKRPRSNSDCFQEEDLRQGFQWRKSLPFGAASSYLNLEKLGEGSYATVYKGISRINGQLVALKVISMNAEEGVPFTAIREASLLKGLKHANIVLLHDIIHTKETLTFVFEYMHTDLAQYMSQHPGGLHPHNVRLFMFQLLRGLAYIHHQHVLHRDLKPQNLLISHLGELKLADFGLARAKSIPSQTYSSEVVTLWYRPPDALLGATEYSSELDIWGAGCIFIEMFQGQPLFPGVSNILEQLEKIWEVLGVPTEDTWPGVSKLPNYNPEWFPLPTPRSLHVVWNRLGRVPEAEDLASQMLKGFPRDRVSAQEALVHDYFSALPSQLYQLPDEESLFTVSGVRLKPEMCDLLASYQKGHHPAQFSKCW
# MAP3K3, sequence (Q99759 whole entry): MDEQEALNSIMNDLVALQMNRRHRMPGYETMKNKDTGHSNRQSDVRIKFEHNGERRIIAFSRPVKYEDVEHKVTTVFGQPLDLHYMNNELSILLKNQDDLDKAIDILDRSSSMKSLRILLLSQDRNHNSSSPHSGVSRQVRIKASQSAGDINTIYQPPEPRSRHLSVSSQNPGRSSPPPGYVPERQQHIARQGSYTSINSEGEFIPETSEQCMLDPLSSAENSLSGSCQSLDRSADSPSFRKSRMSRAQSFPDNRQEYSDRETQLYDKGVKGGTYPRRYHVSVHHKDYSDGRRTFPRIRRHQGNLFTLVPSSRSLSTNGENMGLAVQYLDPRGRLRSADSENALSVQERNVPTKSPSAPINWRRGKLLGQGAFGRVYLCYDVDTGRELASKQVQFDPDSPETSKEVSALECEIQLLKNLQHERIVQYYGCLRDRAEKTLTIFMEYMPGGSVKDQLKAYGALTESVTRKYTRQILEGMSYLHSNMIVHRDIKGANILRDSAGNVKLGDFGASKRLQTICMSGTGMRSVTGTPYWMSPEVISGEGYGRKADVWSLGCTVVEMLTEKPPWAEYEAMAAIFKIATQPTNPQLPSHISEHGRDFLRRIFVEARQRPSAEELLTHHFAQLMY
# T3 sequence (Q9Y2H9 whole entry, the tested form may be a part): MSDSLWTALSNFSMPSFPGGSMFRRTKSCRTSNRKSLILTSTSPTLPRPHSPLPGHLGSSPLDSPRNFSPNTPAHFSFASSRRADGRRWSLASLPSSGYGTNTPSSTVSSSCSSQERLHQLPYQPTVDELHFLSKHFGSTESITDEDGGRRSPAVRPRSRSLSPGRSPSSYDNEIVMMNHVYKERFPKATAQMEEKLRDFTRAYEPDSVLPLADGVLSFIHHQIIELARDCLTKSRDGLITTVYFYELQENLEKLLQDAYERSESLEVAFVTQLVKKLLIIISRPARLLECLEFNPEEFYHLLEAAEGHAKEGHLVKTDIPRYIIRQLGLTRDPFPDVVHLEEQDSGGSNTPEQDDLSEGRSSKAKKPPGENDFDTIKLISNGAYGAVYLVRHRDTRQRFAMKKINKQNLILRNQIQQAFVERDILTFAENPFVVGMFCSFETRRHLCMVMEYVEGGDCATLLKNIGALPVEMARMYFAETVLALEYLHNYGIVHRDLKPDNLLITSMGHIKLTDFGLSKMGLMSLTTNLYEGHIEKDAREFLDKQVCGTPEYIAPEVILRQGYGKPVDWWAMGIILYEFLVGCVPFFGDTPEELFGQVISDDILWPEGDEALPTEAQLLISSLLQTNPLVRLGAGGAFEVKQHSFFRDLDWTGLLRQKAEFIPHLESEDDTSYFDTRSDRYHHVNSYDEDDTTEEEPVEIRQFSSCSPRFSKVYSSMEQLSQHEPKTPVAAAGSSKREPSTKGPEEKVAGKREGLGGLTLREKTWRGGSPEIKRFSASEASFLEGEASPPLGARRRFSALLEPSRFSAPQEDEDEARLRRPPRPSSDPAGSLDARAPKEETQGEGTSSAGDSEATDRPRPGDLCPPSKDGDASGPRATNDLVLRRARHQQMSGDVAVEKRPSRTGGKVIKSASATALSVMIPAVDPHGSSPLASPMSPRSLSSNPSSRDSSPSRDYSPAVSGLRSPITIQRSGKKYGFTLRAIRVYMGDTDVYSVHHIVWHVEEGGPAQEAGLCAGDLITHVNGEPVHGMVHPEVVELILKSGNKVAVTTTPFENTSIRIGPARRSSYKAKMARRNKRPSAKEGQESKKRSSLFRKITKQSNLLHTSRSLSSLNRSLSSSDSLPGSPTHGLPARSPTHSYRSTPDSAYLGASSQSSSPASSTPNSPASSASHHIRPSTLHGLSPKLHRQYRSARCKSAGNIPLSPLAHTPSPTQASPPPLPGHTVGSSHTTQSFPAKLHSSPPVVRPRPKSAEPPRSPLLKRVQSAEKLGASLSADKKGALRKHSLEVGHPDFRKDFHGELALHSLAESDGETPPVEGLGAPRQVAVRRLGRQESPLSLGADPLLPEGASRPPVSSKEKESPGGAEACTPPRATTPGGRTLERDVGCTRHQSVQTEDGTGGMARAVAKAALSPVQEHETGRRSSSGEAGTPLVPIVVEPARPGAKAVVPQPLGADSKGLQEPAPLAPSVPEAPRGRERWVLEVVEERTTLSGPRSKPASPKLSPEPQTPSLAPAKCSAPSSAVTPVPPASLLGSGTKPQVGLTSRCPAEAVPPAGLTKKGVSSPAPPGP
# T2 sequence (Q13188 whole entry, the tested form may be a part): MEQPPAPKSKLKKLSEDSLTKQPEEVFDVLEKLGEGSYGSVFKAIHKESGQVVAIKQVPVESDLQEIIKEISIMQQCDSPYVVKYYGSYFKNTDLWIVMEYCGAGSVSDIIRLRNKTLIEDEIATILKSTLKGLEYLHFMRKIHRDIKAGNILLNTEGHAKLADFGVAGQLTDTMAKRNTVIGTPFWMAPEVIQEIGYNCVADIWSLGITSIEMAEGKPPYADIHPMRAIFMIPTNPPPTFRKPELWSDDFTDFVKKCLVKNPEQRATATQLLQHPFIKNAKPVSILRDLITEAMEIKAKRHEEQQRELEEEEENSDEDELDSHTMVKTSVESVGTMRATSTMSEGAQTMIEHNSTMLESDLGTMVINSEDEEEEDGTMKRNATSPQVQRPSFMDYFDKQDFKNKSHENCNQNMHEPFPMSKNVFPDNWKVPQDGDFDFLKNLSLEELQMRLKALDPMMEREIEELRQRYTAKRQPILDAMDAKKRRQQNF
# CAMK1D, sequence (Q8IU85 whole entry): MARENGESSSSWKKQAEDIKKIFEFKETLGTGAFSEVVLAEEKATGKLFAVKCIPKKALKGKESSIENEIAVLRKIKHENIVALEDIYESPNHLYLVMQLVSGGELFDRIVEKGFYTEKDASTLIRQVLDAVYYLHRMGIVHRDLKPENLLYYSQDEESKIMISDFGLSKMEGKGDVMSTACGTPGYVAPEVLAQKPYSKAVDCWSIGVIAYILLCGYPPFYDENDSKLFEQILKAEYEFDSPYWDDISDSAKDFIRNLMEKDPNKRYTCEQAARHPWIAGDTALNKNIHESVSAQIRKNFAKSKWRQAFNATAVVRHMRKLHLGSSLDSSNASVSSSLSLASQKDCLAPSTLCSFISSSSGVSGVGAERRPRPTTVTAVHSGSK
# CLK2, sequence (P49760 whole entry): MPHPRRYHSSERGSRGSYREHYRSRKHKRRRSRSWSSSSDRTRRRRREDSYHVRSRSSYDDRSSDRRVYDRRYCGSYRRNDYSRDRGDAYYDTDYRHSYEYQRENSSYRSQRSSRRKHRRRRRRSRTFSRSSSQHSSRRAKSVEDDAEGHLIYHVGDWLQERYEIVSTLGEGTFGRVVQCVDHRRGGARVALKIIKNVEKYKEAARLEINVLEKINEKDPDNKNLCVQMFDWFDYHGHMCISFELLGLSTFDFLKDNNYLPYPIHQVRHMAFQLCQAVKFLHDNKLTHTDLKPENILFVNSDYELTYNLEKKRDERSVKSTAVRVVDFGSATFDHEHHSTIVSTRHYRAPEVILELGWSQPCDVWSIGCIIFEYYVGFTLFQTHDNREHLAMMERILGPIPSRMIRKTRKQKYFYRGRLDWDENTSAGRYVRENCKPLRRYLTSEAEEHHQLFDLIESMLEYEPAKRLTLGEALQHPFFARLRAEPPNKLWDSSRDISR
# PIM2, sequence (Q9P1W9 whole entry): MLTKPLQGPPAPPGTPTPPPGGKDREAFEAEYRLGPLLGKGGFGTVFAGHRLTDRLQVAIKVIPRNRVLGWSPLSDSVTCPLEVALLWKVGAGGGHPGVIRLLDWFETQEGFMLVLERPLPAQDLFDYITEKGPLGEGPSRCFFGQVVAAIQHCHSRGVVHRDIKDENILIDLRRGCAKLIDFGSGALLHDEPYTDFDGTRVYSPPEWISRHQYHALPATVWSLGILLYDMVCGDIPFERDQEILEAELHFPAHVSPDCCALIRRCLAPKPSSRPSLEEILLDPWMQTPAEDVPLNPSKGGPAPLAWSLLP
compound,measurement,setting,value
Cc1cc(Oc2cc(NC(=O)C3CC3)ncn2)ccc1NC(=O)Nc1ccc(Cl)c(C(F)(F)F)c1 [CBT-102],remaining activity at 1 µM,[1],0%
same,remaining activity at 1 µM,[2],85%
same,remaining activity at 1 µM,[3],40%
same,remaining activity at 1 µM,[4],82%
same,remaining activity at 1 µM,[5],100%
same,remaining activity at 1 µM,[6],92%
same,remaining activity at 1 µM,[7],91%
same,remaining activity at 1 µM,[8],81%
same,remaining activity at 1 µM,[9],0%
same,remaining activity at 1 µM,[10],0%
same,remaining activity at 1 µM,[11],3.9%
same,remaining activity at 1 µM,[12],95%
same,remaining activity at 1 µM,[13],20%
same,remaining activity at 1 µM,[14],73%
same,remaining activity at 1 µM,[15],100%
same,remaining activity at 1 µM,[16],95%
same,remaining activity at 1 µM,[17],86%
same,remaining activity at 1 µM,[18],16%
same,remaining activity at 1 µM,[19],100%
same,remaining activity at 1 µM,[20],0%
same,remaining activity at 1 µM,[21],100%
same,remaining activity at 1 µM,[22],96%
same,remaining activity at 1 µM,[23],100%
same,remaining activity at 1 µM,[24],100%
same,remaining activity at 1 µM,[25],22%
same,remaining activity at 1 µM,[26],100%
same,remaining activity at 1 µM,[27],69%
same,remaining activity at 1 µM,[28],8.3%
same,remaining activity at 1 µM,[29],100%
same,remaining activity at 1 µM,[30],83%
same,remaining activity at 1 µM,[31],60%
same,remaining activity at 1 µM,[32],2.2%
same,remaining activity at 1 µM,[33],98%
same,remaining activity at 1 µM,[34],98%
same,remaining activity at 1 µM,[35],97%
same,remaining activity at 1 µM,[36],98%
same,remaining activity at 1 µM,[37],100%
same,remaining activity at 1 µM,[38],88%
same,remaining activity at 1 µM,[39],89%
